Assays:
persian speedwell [1] = assay: Test Example 5: herbicidal effect by foliage application, plastic box (Table 20, symbol R); format: in vivo, Persian speedwell (Veronica persica); conditions: foliage application, 320 g/ha, three weeks after application
In short: (§1)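 Plants were sown into sterilized diluvial soil under about 1.5 cm cover and kept in a greenhouse at 25° C. to 30° C. Fourteen days on, foliage received an even spray of the diluted emulsion. Herbicidal or crop effect was judged three weeks afterwards.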

windgrass [2] = assay: Test Example 5: herbicidal effect by foliage application, plastic box (Table 20, symbol L); format: in vivo, windgrass (Apera spica-venti); conditions: foliage application, 320 g/ha, three weeks after application
In short: as §1

Italian ryegrass [3] = assay: Test Example 4: herbicidal effect by soil treatment (Table 19, symbol K); format: in vivo, Italian ryegrass (Lolium multiflorum); conditions: amount of applied herbicide 320 g/ha
In short: (§2)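 In this soil treatment, the formulated compound reached the seeds only through the soil: seeds were buried about 1.5 cm deep in sterilized diluvial soil, then the diluted emulsion was sprayed over the surface. After three weeks at 25° C. to 30° C. in a greenhouse, effects were graded on criteria from an earlier test.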

late watergrass [4] = assay: Test Example 1: herbicidal activity, application before weed generation under submerged conditions (Table 16, symbol A); format: in vivo, late watergrass (Echinochloa oryzicola); conditions: amount of applied herbicide 320 g/ha
In short: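 Alluvial soil was flooded to 4 cm depth, weed seeds were sown mixed and 2.5-leaf rice seedlings were transplanted. On sowing day, the compound's emulsion, diluted in water to a set dose, was applied to the water surface. Plants grew at 25–30 °C and were scored 0–5 after three weeks.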

persian speedwell [5] = assay: Test Example 4: herbicidal effect by soil treatment (Table 19, symbol R); format: in vivo, Persian speedwell (Veronica persica); conditions: amount of applied herbicide 320 g/ha
In short: as §2

barnyard grass = assay: Test Example 3: herbicidal effect by foliage application, Wagner pot (Table 18, symbol H); format: in vivo, barnyard grass (Echinochloa crus-galli); conditions: amount of applied herbicide 320 g/ha
In short: (§3)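 Plants were sown in alluvial soil held under 0.1–0.5 cm standing water and grown 14 days in a greenhouse at 25–30 °C. An emulsifiable formulation, water-diluted to the set dose, was then sprayed onto the foliage, and effects were scored three weeks later using previously defined criteria.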

lambsquarters = assay: Test Example 5: herbicidal effect by foliage application, plastic box (Table 20, symbol O); format: in vivo, lambsquarters (Chenopodium album); conditions: foliage application, 320 g/ha, three weeks after application
In short: as §1

rice flat sedge = assay: Test Example 3: herbicidal effect by foliage application, Wagner pot (Table 18, symbol E); format: in vivo, rice flat sedge (Cyperus iria); conditions: amount of applied herbicide 320 g/ha
In short: as §3

green foxtail [6] = assay: Test Example 5: herbicidal effect by foliage application, plastic box (Table 20, symbol G); format: in vivo, green foxtail (Setaria viridis); conditions: foliage application, 320 g/ha, three weeks after application
In short: as §1

oval-leafed pondweed = assay: Test Example 2: herbicidal activity, application during weed generation under submerged conditions (Table 17, symbol C); format: in vivo, oval-leafed pondweed (Monochoria vaginalis); conditions: AAH 320 g/ha; application during weed generation, submerged conditions
In short: (§4)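 3-wk visual-criteria score after one water-surface dose. Emulsion formulation, water-diluted to set rate; applied at 1–2 leaf stage; alluvial soil, 4 cm standing water; seeds co-sown; greenhouse 25–30° C.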

Japanese bulrush = assay: Test Example 2: herbicidal activity, application during weed generation under submerged conditions (Table 17, symbol B); format: in vivo, Japanese bulrush (Schoenoplectus juncoides); conditions: AAH 320 g/ha; application during weed generation, submerged conditions
In short: as §4

southern crabgrass = assay: Test Example 5: herbicidal effect by foliage application, plastic box (Table 20, symbol F); format: in vivo, southern crabgrass (Digitaria ciliaris); conditions: foliage application, 320 g/ha, three weeks after application
In short: as §1

late watergrass [7] = assay: Test Example 2: herbicidal activity, application during weed generation under submerged conditions (Table 17, symbol A); format: in vivo, late watergrass (Echinochloa oryzicola); conditions: AAH 320 g/ha; application during weed generation, submerged conditions
In short: as §4

chickweed = assay: Test Example 4: herbicidal effect by soil treatment (Table 19, symbol P); format: in vivo, common chickweed (Stellaria media); conditions: amount of applied herbicide 320 g/ha
In short: as §2

Italian ryegrass [8] = assay: Test Example 5: herbicidal effect by foliage application, plastic box (Table 20, symbol K); format: in vivo, Italian ryegrass (Lolium multiflorum); conditions: foliage application, 320 g/ha, three weeks after application
In short: as §1

green foxtail [9] = assay: Test Example 4: herbicidal effect by soil treatment (Table 19, symbol G); format: in vivo, green foxtail (Setaria viridis); conditions: amount of applied herbicide 320 g/ha
In short: as §2

windgrass [10] = assay: Test Example 4: herbicidal effect by soil treatment (Table 19, symbol L); format: in vivo, windgrass (Apera spica-venti); conditions: amount of applied herbicide 320 g/ha
In short: as §2

SMILES	R: persian speedwell, herbicidal effect grade (persian speedwell [1])	L: windgrass, herbicidal effect grade (windgrass [2])	herbicidal effect, K: Italian ryegrass (Italian ryegrass [3])	Herbicidal effect, A: late watergrass (late watergrass [4])	herbicidal effect, R: persian speedwell (persian speedwell [5])	herbicidal effect on H: barnyard grass (barnyard grass)	O: lambsquarters, herbicidal effect grade (lambsquarters)	herbicidal effect on E: rice flat sedge (rice flat sedge)	G: green foxtail, herbicidal effect grade (green foxtail [6])	herbicidal effect rating, C: oval-leafed pondweed (oval-leafed pondweed)	herbicidal effect rating, B: Japanese bulrush (Japanese bulrush)	F: southern crabgrass, herbicidal effect grade (southern crabgrass)	herbicidal effect rating, A: late watergrass (late watergrass [7])	herbicidal effect, P: chickweed (chickweed)	K: Italian ryegrass, herbicidal effect grade (Italian ryegrass [8])	herbicidal effect, G: green foxtail (green foxtail [9])	herbicidal effect, L: windgrass (windgrass [10])
CCCC(=O)Oc1c(C)nn(C)c(=O)c1-c1c(-c2ccccc2OC)sc2cc(F)ccc12 [3-004]	5 (Herbicidal rate of 90% or more (almost completely withered))	5 (Herbicidal rate of 90% or more (almost completely withered))	5 (Herbicidal rate of 90% or more (almost completely withered))	5 (Herbicidal rate of 90% or more (almost completely withered))	4 (Herbicidal rate of 70% or more and less than 90%)	5 (Herbicidal rate of 90% or more (almost completely withered))	5 (Herbicidal rate of 90% or more (almost completely withered))	5 (Herbicidal rate of 90% or more (almost completely withered))	4 (Herbicidal rate of 70% or more and less than 90%)	4 (Herbicidal rate of 70% or more and less than 90%)	2 (Herbicidal rate of 20% or more and less than 40%)	3 (Herbicidal rate of 40% or more and less than 70%)	4 (Herbicidal rate of 70% or more and less than 90%)	5 (Herbicidal rate of 90% or more (almost completely withered))	5 (Herbicidal rate of 90% or more (almost completely withered))	4 (Herbicidal rate of 70% or more and less than 90%)	5 (Herbicidal rate of 90% or more (almost completely withered))
COc1ccc(-c2sc3cc(F)ccc3c2-c2c(O)c(C)nn(C)c2=O)cc1 [3-005]	5 (Herbicidal rate of 90% or more (almost completely withered))	3 (Herbicidal rate of 40% or more and less than 70%)	5 (Herbicidal rate of 90% or more (almost completely withered))	4 (Herbicidal rate of 70% or more and less than 90%)	4 (Herbicidal rate of 70% or more and less than 90%)	5 (Herbicidal rate of 90% or more (almost completely withered))	5 (Herbicidal rate of 90% or more (almost completely withered))	5 (Herbicidal rate of 90% or more (almost completely withered))	4 (Herbicidal rate of 70% or more and less than 90%)	4 (Herbicidal rate of 70% or more and less than 90%)	3 (Herbicidal rate of 40% or more and less than 70%)	3 (Herbicidal rate of 40% or more and less than 70%)	3 (Herbicidal rate of 40% or more and less than 70%)	5 (Herbicidal rate of 90% or more (almost completely withered))	3 (Herbicidal rate of 40% or more and less than 70%)	3 (Herbicidal rate of 40% or more and less than 70%)	0 (Herbicidal rate of 5% or less (almost no effect))
